1 compound from patent US20060115571A1, “Functional foods/drinks containing antiallergic component” (priority 2002, published 2006) can be followed below.

Structures are written as SMILES.

This data set in a line: stability during the process of preparing the hard candy. The note with it: powder of an extract of "Benifuki" made into hard candy. Here is the method: Using a powder of an extract of “Benifuki”, a hard candy was prepared. Methylcatechin was contained at 2.7% in the powder of the extract, so one hard candy was designed to contain 3 mg of methylcatechin.

For the compound `O=C1C[C@@H]2OCC=C3CN4CC[C@]56c7ccccc7N1[C@H]5[C@H]2[C@H]3C[C@H]46` [Strychnine, strychnine], the “stability during the process of preparing the hard candy” value was “stable”.
